The values below are quoted from earlier work in patent publication US20050233013A1, “Methods for enhancing the transport of glucose for balancing blood sugar levels” (priority 2004, published 2005).

The data set concerns pancreatic beta cell. The following applies: micromolar concentrations; glucose dependent; Sauvaire et al, Diabetes 47:206 (1998).

Structures are written as SMILES.

Consider `C[C@@H]([C@H](C)O)[C@H](N)C(=O)O` [major isomer (2S, 3R, 4S), (2S, 3R, 4S)-4-hydroxyisoleucine], for which the glucose-induced insulin secretion result is listed as “stimulate glucose-induced insulin secretion”.
